This note sets out measurements from patent publication US8431564B2 (Merck Sharp & Dohme B.V., priority 2009, dated 2013).

The target in this experiment is T1, human FSH receptor (Homo sapiens, UniProt P23945).
T1 construct: expressed in transfected cells; host or cells: CHO (Chinese Hamster Ovary) cells, stably transfected, cotransfected with CRE-luciferase reporter
T1 sequence (P23945 18-695): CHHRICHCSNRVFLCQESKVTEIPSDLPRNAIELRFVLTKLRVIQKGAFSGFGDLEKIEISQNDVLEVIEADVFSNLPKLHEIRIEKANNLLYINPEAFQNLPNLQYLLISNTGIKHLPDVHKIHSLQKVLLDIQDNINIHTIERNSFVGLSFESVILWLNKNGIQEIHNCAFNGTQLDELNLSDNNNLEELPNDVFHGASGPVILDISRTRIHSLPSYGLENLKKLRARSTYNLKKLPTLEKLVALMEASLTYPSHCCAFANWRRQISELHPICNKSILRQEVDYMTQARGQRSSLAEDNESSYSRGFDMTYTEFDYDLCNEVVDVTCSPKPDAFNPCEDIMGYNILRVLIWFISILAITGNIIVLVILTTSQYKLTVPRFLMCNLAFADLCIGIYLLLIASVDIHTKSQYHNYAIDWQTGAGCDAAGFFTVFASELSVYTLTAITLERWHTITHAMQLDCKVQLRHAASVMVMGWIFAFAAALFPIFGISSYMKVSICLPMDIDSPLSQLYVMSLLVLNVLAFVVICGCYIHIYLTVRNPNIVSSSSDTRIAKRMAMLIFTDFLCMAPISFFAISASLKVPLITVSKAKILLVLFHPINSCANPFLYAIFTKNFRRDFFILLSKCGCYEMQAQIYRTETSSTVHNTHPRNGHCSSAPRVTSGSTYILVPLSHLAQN
The experiment in a line: Agonistic activity at the human FSH receptor expressed in CHO cells (CRE-luciferase reporter). The settings on record: CHO cells stably transfected with human FSH receptor and CRE/luciferase reporter; 4 hours incubation; pEC50 is -log EC50; read-out: hFSHRago (CHO luc) pEC50 (converted). The class given is cell-based. In a few lines: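 Stably transfected CHO cells with CRE-driven firefly luciferase reporter, incubated 4 h at 37° C. with compound (0.0316 nM–10.0 μM, duplicate, 1% DMSO final) in insulin/transferrin-supplemented medium. Luminescence after lysis; EC50 relative to compound's own maximum, efficacy as percent of recombinant human FSH maximum.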
On the technique in general: In a reporter assay the amount or activity of a reporter protein is the signal.
With `COc1cc2c(cc1C(=O)N1CCC[C@H]1CO)-c1c(-c3cccs3)c3c(n1CC2)C(=O)N(C(C)(C)C)CCCC3` [Compound 26c3, (S)-9-tert-butyl-3-methoxy-2-(2-hydroxymethyl-1-pyrrolidinylcarbonyl)-14-(thiophen-2-yl)-5,6,10,11,12,13-hexahydroazocino[4′,3′:4,5]pyrrolo[2,1-a]isoquinolin-8(9H)-one], the EC50 was 27.5 nM. The figure for `COc1cc2c(cc1C(=O)N1CCOCC1)-c1c(-c3cccs3)c3c(n1CC2)C(=O)N(C(C)(C)C)CCCC3` [Compound 26c4, 9-tert-butyl-3-methoxy-2-(4-morpholinylcarbonyl)-14-(thiophen-2-yl)-5,6,10,11,12,13-hexahydroazocino[4′,3′:4,5]pyrrolo[2,1-a]isoquinolin-8(9H)-one] is 9.77 nM.

As to `COc1cc2c(cc1C(=O)NCC(O)CO)-c1c(-c3cccs3)c3c(n1CC2)C(=O)N(C(C)(C)C)CCCC3` (centres unmarked) [Compound 26c5, 9-tert-butyl-3-methoxy-2-(2,3-dihydroxy-1-propylaminocarbonyl)-14-(thiophen-2-yl)-5,6,10,11,12,13-hexahydroazocino[4′,3′:4,5]pyrrolo[2,1-a]isoquinolin-8(9H)-one], the EC50 was 0.871 nM. `COCC(O)CNC(=O)c1cc2c(cc1OC)CCn1c3c(c(-c4cccs4)c1-2)CCCCN(C(C)(C)C)C3=O` (centres unmarked) [Compound 26c6, 9-tert-butyl-3-methoxy-2-(2-hydroxy-3-methoxy-1-propylaminocarbonyl)-14-(thiophen-2-yl)-5,6,10,11,12,13-hexahydroazocino[4′,3′:4,5]pyrrolo[2,1-a]isoquinolin-8(9H)-one]: the EC50 is 1.07 nM. To `COc1cc2c(cc1C(=O)NCCO)-c1c(-c3cccs3)c3c(n1CC2)C(=O)N(C(C)(C)C)CCCC3` [Compound 26c7, 9-tert-butyl-2-(2-hydroxyethylaminocarbonyl)-3-methoxy-14-(thiophen-2-yl)-5,6,10,11,12,13-hexahydroazocino[4′,3′:4,5]pyrrolo[2,1-a]isoquinolin-8(9H)-one] belongs 0.427 nM; to `COc1cc2c(cc1C(=O)N(C)CCO)-c1c(-c3cccs3)c3c(n1CC2)C(=O)N(C(C)(C)C)CCCC3` [Compound 26c8, 9-tert-butyl-2-(N-2-hydroxyethyl,N-methylaminocarbonyl)-3-methoxy-14-(thiophen-2-yl)-5,6,10,11,12,13-hexahydroazocino[4′,3′:4,5]pyrrolo[2,1-a]isoquinolin-8(9H)-one], 5.37 nM. To `C=CCCNC(=O)c1cc2c(cc1OC)CCn1c3c(c(-c4cccs4)c1-2)CCCCN(C(C)(C)C)C3=O` [Compound 26c9, 9-tert-butyl-2-(4-butenylaminocarbonyl)-3-methoxy-14-(thiophen-2-yl)-5,6,10,11,12,13-hexahydroazocino[4′,3′:4,5]pyrrolo[2,1-a]isoquinolin-8(9H)-one] belongs 0.468 nM. The figure for `COc1cc2c(cc1C(=O)NCCC(O)CO)-c1c(-c3cccs3)c3c(n1CC2)C(=O)N(C(C)(C)C)CCCC3` (centres unmarked) [Compound 26c10, 9-tert-butyl-2-(3,4-dihydroxybutylaminocarbonyl)-3-methoxy-14-(thiophen-2-yl)-5,6,10,11,12,13-hexahydroazocino[4′,3′:4,5]pyrrolo[2,1-a]isoquinolin-8(9H)-one] is 1.95 nM. As for `COc1cc2c(cc1F)-c1c(-c3cccs3)c3c(n1CC2)C(=O)N(C(C)(C)C)CCCC3` [Compound 27c, 9-tert-butyl-2-fluoro-3-methoxy-14-(thiophen-2-yl)-5,6,10,11,12,13-hexahydroazocino[4′,3′:4,5]pyrrolo[2,1-a]isoquinolin-8(9H)-one], the EC50 was 30.2 nM.

For `COc1cc2c(cc1C(=O)CC[C@@H](O)CO)-c1c(-c3cccs3)c3c(n1CC2)C(=O)N(C(C)(C)C)CCCC3` [Compound 28b, (R)-9-tert-butyl-2-(4,5-dihydroxypentanoyl)-3-methoxy-14-(thiophen-2-yl)-5,6,10,11,12,13-hexahydroazocino[4′,3′:4,5]pyrrolo[2,1-a]isoquinolin-8(9H)-one], the EC50 is 2.63 nM.

As to `COc1cc2c(cc1NS(C)(=O)=O)-c1c(-c3cccs3)c3c(n1CC2)C(=O)N(C(C)(C)C)CCCC3` [Compound 29a, 9-tert-butyl-3-methoxy-2-(methylsulfonamido)-14-(thiophen-2-yl)-5,6,10,11,12,13-hexahydroazocino[4′,3′:4,5]pyrrolo[2,1-a]isoquinolin-8(9H)-one], the EC50 is 1.95 nM.
